# Experiments:
# [1] = molecular target: T1, human MCH receptor 1 (MCHR1) (Homo sapiens, UniProt Q99705); test: human MCH receptor 1 (MCHR1) competitive binding assay with [125I]-MCH(4-19); conditions: test compound 0.1 μM, human MCHR1-expressing CHO cell membrane fraction, read-out: Binding inhibition rate % (0.1 μM)
# T1 construct: expressed in transfected cells; host or cells: CHO cell clone 57 (membrane fraction)
# Summary of the method: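 Percent binding inhibition by 0.1 μM test compound, corrected for nonspecific binding defined with unlabeled MCH(1-19), is read by scintillation after filtration onto PEI-treated GF/C filters. The reaction runs 1 hr at room temperature with [125I]-MCH(4-19) and human MCHR1-CHO cell membranes in Tris-HCl pH 7.5 buffer containing EDTA and protease inhibitors.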
# [2] = tested on: male diet-induced obese F344/Jcl rats; test: Anorectic effect in male diet-induced obese F344/Jcl rats; assay type: in vivo, rat; conditions: Rattus norvegicus, po, 48 h, 5 mg/mL suspension at 2 mL/kg, two administrations, food intake for 2 days vs control group, read-out: Food intake suppression rate (%)
# Method: Evaluation of Anorectic Effect Using Male Diet-Induced Obese F344/Jcl Rats
# Male diet-induced obese F344/Jcl rats (44-50 weeks old) fed with a high-fat diet (D12451: Research Diets) from 5 weeks old were used. From before the start of experiment, the rats were singly housed, given a powder high-fat diet (D12451M: Research Diets), and habituated to oral administration with tap water. The food intake from the evening of the day before the start of experiment to the next morning was measured, and the rats were grouped based on both the food intake and the body weight of the previous day. In the evening of the day of the start of experiment and the next day, 0.5% methylcellulose solution was orally administered to the control group, and 0.5% methylcellulose suspension (5 mg/mL) of the test compound was orally administered to the compound administration group at 2 mL/kg (6 per group for both control group and compound administration group). The food intake for 2 days from the initial administration was measured. The food intake inhibition rate of each compound administration group to the control group was calculated.
# [3] = tested on: HepG2 cells; test: PLsis (phospholipidosis) inducing potential, NBD-PE uptake; assay type: cell-based; conditions: 24 hr exposure, relative value to 10 μM Amiodarone, maximum value per unit concentration
# Method: Evaluation of PLsis Inducing Potential
# DMEM medium, L-glutamine, penicillin-streptomycin, pyruvic acid, and N-(7-nitrobenz-2-oxa-1,3-diazol-4-yl)-1,2-hexadecanoyl-sn-glycero-3-phosphoethanolamine triethylammonium salt (NBD-PE) were purchased from Invitrogen Corporation. As bovine serum albumin (BSA), a product of Thermo Trace Ltd. (Melbourne, Australia) was used, and as Amiodarone, a product of ICN (Costa Mesa, Calif.) was used. A test compound was used in the form of a 10 mM DMSO solution.
# FBS was added at a final concentration of 5 vol % to DMEM medium supplemented with L-glutamine, pyruvic acid and penicillin-streptomycin and subjected to the experiment. Culture was performed using 5% carbon dioxide gas-95% air as a gas phase in a CO2 incubator at 37° C. HepG2 cells were suspended in a culture medium at 50×10^4 cells/mL, plated in a 96 well plate at 50 μL/well and precultured for 24 hr. After preculture, the culture medium was removed, a culture medium containing 60 μM NBD-PE was added at 50 μL/well, and a culture medium containing 0.6 μM or 20 μM test compounds were each added at 50 μL/well to HepG2 cells, and the cells were cultured for 24 hr. As a positive control, Amiodarone was used at a final concentration of 10 μM.
# After exposure to the test compound for 24 hr, the fluorescence intensity (Ex. 485 nm, Em. 538 nm) of NBD-PE uptaken by the cells was measured by a fluorometer. The measurement value with addition of 0 μM test compound solution was subtracted as a blank, a relative value to the measurement 5 value with addition of 10 μM Amiodarone was calculated, and the maximum value per unit concentration of the test compound was obtained as a phospholipidosis (PLsis) inducing potential.
# [4] = molecular target: T2, human MCHR1 (Homo sapiens, UniProt Q99705); test: MCH receptor 1 antagonistic activity, Ca2+ mobilization assay; assay type: cell-based; conditions: CHO, test compound 0.1 μM; human MCHR1-expressing CHO cells (clone #4); ligand MCH(4-19) 2 nM; read-out: Inhibitory rate % (0.1 μM)
# T2 construct: expressed in transfected cells; host or cells: CHO dhfr- cells, clone #4
# T2 sequence (Q99705 whole entry): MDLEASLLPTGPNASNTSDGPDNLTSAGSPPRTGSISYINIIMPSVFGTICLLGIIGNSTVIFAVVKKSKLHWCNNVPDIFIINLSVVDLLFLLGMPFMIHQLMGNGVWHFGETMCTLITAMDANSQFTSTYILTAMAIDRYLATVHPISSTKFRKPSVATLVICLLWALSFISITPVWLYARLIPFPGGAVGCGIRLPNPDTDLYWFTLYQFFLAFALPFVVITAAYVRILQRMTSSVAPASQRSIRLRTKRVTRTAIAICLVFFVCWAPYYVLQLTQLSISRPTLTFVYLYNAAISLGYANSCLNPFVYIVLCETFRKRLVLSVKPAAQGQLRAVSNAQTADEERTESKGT
# Summary of the method: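 CHO dhfr− cells stably expressing human MCHR1 (clone #4) were used in a fluorometric Ca2+ mobilization assay. Test compounds were run at 0.1 μM, with antagonism expressed as percent inhibition.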
# T1 sequence (Q99705 whole entry): as above
SMILES,inhibition at 0.1 µM [1],inhibition at 0.1 µM [4],"inhibition in vivo at 5000 µg/mL, 10 mg/kg [2]",PLsis inducing potential [3]
"CCc1nc2ccc(-n3ccc(OCc4csc(Cl)c4)cc3=O)cc2n1C [Example 226, 4-((5-Chloro-3-thienyl)methoxy)-1-(2-ethyl-1-methyl-1H-benzimidazol-6-yl)pyridin-2(1H)-one]",89%,106%,,2.1
"Cn1c(C2CC2)nc2ccc(-n3ccc(OCc4ccc(Cl)s4)cc3=O)cc21 [Example 121, 4-((5-Chloro-2-thienyl)methoxy)-1-(2-cyclopropyl-1-methyl-1H-benzimidazol-6-yl)pyridin-2(1H)-one]",95%,96%,36.5%,1.7
"Cn1c(C2CC2)nc2ccc(-n3ccc(OCc4ccc(Cl)cn4)cc3=O)cc21 [Example 112, 4-((5-Chloropyridin-2-yl)methoxy)-1-(2-cyclopropyl-1-methyl-1H-benzimidazol-6-yl)pyridin-2(1H)-one]",70%,48%,25.5%,1.6
"Cn1c(C2CC2)nc2ccc(-n3ccc(OCc4csc(Cl)c4)cc3=O)cc21 [Example 143, 4-((5-Chloro-3-thienyl)methoxy)-1-(2-cyclopropyl-1-methyl-1H-benzimidazol-6-yl)pyridin-2(1H)-one]",91%,,39.4%,1.6

# Now from value to compound, other results behind:
inhibition at 0.1 µM [1],inhibition at 0.1 µM [4],SMILES,"inhibition in vivo at 5000 µg/mL, 10 mg/kg [2]",PLsis inducing potential [3]
82%,,"Cn1c(C2CC2)nc2ccc(-n3ccc(OCc4ccc(F)c(F)c4)cc3=O)cc21 [Example 115, 1-(2-Cyclopropyl-1-methyl-1H-benzimidazol-6-yl)-4-((3,4-difluorobenzyl)oxy)pyridin-2(1H)-one]",32%,1.8
88%,99%,"Cc1c(C2CC2)nc2ccc(-n3ccc(OCc4ccc(Cl)cc4)cc3=O)cn12 [Example 3, 4-((4-Chlorobenzyl)oxy)-1-(2-cyclopropyl-3-methylimidazo[1,2-a]pyridin-6-yl)pyridin-2(1H)-one]",29.6%,2.4
91%,98%,"Cc1c(C2CC2)nc2ccc(-n3ccc(OCc4ccc(F)cc4)cc3=O)cn12 [Example 1, 1-(2-Cyclopropyl-3-methylimidazo[1,2-a]pyridin-6-yl)-4-((4-fluorobenzyl)oxy)pyridin-2(1H)-one]",19.5%,2.5
48%,90%,"Cc1c(C2CC2)nc2ccc(-n3ccc(OCc4ccc(F)s4)cc3=O)cn12 [Example 156, 1-(2-Cyclopropyl-3-methylimidazo[1,2-a]pyridin-6-yl)-4-((5-fluorothiophen-2-yl)methoxy)pyridin-2(1H)-one]",,2.0
81%,101%,"Cc1c(C2CC2)nc2ccc(-n3ccc(OCc4ccccc4)cc3=O)cn12 [Example 11, 4-(Benzyloxy)-1-(2-cyclopropyl-3-methylimidazo[1,2-a]pyridin-6-yl)pyridin-2(1H)-one]",21.8%,2.0
